# In patent publication US20070059319A1, “Methods of screening for immuno-adjuvants and vaccines comprising anti-microtubule immuno-adjuvants” (Caliper Life Sciences, Inc., priority 2005, published 2007):
# Test system: human monocytes (THP-1 cell line)
# Assay: multiplex functional cell-based HTS assay (5-plex): expression of co-stimulatory molecules and cytokines by THP-1 monocytes
# Set-up: IL-8 / RANTES / TNFα: unit not given here
# Conditions: THP-1 cells incubated overnight with 10^-5M test compound; for IL-8 / RANTES / TNFα: concentration in cell culture supernatant, Luminex, mean of two wells; for CD54 / CD80: flow cytometry, specific staining (MFI minus isotype control MFI)
# Method: Test compounds/candidate agents were diluted in 100% DMSO at a concentration of 10^−2M and stored in 96 well “matrix” plates at −80° C. These compound stocks were employed as a pool of mother plates. Compounds to be assayed were diluted 100 times in sterile PBS using a liquid handling robot “Evolution P3” (PerkinElmer) to a concentration of 10^−4M, and stored at −20° C. until they were used for the assay. In total, 20,000 candidate agents were tested.
# 10^5 THP-1 cells were incubated overnight with 10^−5M of test compound (20 μl of 10^−4M compound stock solution was added to 180 μl of the cells suspension). Incubations were carried out in U bottom 96 well tissue culture plates. Each compound was tested in duplicate. Collection of the cell culture supernatants and cell surface receptor staining were carried out using the “Biomek 2000” liquid handling robot (Becton Coulter).
# Expression of cell surface receptors was analyzed by flow cytometry using the following antibodies: PE-conjugated anti-human CD80 and APC conjugated anti-human CD54 (ICAM-1) and matching labeled isotype controls, all from BD Pharmingen. Cells in the first well of each duplicate were stained with isotype controls (IC). In the second well, cells were stained with CD80 and CD54 antibodies. Stained cells were analyzed on a flow cytometer (FACSArray cytometer (BD Pharmingen)). The mean fluorescence intensity (MFI) for IC and CD80/CD54 antibodies stained cells were determined using “FlowJo” software (Tree Star, Inc.). The IC MFIs were subtracted from CD80/CD54 MFIs and results were recorded as specific staining and used for the following data analysis.
# The concentrations of IL-8, RANTES and TNFα in cell culture supernatants were determined for each well of the duplicates using the “Fluorokine MultiAnalyte Profiling” kits (R&D Systems). Samples were analyzed on the Luminex 100IS system and data analysis was performed using Luminex 2.3IS software (both from Luminex corporation). The mean value of two wells was recorded and used for the following data analysis.
# To identify agents that stimulate the innate immune system, a multiplex functional cell-based assay was used. The assay used human monocytes (THP-1 cell line) as target cells and expression of co-stimulatory molecules (CD54 and CD80) and immune-activating cytokines (IL-8, RANTES and TNFα) as assay readouts. These molecules play major role in the innate immune response and are required for effective activation of the adaptive immune system.
Molecule,IL-8,RANTES,TNFα,CD54,CD80
COc1cc2c(c(OC)c1OC)-c1ccc(OC)c(=O)cc1[C@@H](NC(C)=O)CC2 [Colchicine],7499.42,4383.62,66.37,554.50,3.69
CN[C@H]1CCc2cc(OC)c(OC)c(OC)c2-c2ccc(OC)c(=O)cc21 [Demecolcine],2533.58,740.62,95.20,600.87,4.91
CC[C@]1(O)C[C@@H]2CN(CCc3c([nH]c4ccccc34)[C@@](C(=O)OC)(c3cc4c(cc3OC)N(C)[C@H]3[C@@](O)(C(=O)OC)[C@H](OC(C)=O)[C@]5(CC)C=CCN6CC[C@]43[C@@H]65)C2)C1 [Vinblastine],6543.63,4568.01,78.47,665.18,3.89
CC[C@]1(O)C[C@H]2CN(CCc3c([nH]c4ccccc34)[C@@](C(=O)OC)(c3cc4c(cc3OC)N(C=O)[C@H]3[C@@](O)(C(=O)OC)[C@H](OC(C)=O)[C@]5(CC)C=CCN6CC[C@]43[C@@H]65)C2)C1 [Vincristine],8334.51,5232.60,88.30,814.96,3.90
bacterial lipopolisaccharide [LPS],13562.99,3217.60,866.78,3662.56,64.12
